The target in this assay is T1, SHP2 protein (Homo sapiens, UniProt Q06124).
T1 sequence (Q06124 1-593): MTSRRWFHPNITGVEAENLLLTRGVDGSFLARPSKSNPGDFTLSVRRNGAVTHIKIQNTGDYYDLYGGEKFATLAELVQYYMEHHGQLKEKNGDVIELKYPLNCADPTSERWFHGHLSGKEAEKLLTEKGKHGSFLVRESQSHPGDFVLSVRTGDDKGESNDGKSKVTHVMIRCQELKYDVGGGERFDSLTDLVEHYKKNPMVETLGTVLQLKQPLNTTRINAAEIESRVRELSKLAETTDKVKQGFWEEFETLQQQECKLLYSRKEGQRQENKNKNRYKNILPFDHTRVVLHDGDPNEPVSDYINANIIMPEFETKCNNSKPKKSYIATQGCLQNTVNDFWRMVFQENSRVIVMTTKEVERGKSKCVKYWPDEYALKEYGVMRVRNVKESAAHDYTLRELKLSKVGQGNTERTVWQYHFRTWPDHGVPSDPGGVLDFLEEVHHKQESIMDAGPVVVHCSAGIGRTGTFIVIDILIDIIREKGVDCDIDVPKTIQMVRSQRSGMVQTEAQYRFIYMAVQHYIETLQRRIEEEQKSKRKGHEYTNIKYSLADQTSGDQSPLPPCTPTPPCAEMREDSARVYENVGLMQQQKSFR
Kind of assay: Measurement of SHP2 protein degradation in KYSE-520 cells (western blotting). The class given is cell-based. Also on record: endogenous in cells. Particulars: 24 hours. As for the experimental part:
Experimental Example 1: Measurement of SHP2 Protein Degradation in KYSE-520 Cells
KYSE-520 cells were treated with the synthesized Example compound, and the amount of SHP2 protein present in the cells was measured using western blotting detection. The protocol of the experiment conducted using KYSE-520 cells was as follows:
[Culture] KYSE-520 cells resuspended in RPMI1640 MEDIUM (Hyclone, SH30027.01) containing 5% FBS (Hyclone, SV30207.02) and 1% Penicillin-streptomycin (Welgene, LS 202-02) were seeded at a density of 2.5×10^5/well in a 6-well plate in an amount of 2 ml each and incubated for 2 days.
[Compound treatment] […] After 24 hours, cells were harvested. For the negative control group, DMSO diluted 1/10 to the media (3 mL DMSO+27 mL media) was added.
[Cell Lysis and Protein Quantification] Lysis buffer was prepared as follows: […] of RIPA buffer (Biosesang, RC2038-050-00)+0.5 mM PMSF (SIGMA, P7626)+1× Protease/Phosphatase Inhibitor (Cell signaling, 5872S) per well was added and placed on ice for 30 minutes (vortexing at 0 and 30 minutes, respectively). After sonication process (10 seconds pulse, 30 seconds rest, 5 cycles, 70% amplification), centrifugation (15000 g, 15 min, 4° C.) was performed, and then only the supernatant was taken and transferred to a new microtube. The sample was diluted ¼ with RIPA buffer in a 96-well plate, and mixed with A:B=50:1 of the BCA Protein Assay Kit (iNtRON, 21071). […] each of the mixture was left at 37° C. for 30 minutes, and cooled for 10 minutes. Then, absorbance was measured at 562 nm with the SYNERGY H1 microplate reader from BioTek. After making a sample by quantifying the protein with the measured value, boiling was performed at 70° C. for 10 minutes. At this time, the sample buffer used was a mixture of NuPAGE or Bolt 4× sample buffer (Invitrogen) and each 10× sample reducing agent according to the gel to be used, and RIPA buffer was used for protein dilution.
[Western blotting detection method] The same amount of sample was loaded on NuPAGE or Bolt Bis-tris 4-12% gradient gel and run (200 V, 35 minutes). It was transferred to 0.2 mm NC membrane with Trans-blot Turbo (BIO-RAD) (1.3 A constant, 25 V limit, 15 minutes). Blocking was performed at room temperature for 1 hour with Skim milk or Intercept Blocking Buffer (LI-COR, 927-60001):0.1% TBST=1:1. Anti SHPTP2 Mouse (1:500 in 5% Skim milk/TBST, size: 70 kDa, Santacruz sc-7384) was incubated overnight at 4° C., and Anti GAPDH Rabbit (1:2,000 in 5% BSA/0.2% TBST, size: 37 kDa, CST #2118) was incubated at room temperature for 1 hour 30 minutes or 3 hours. It was washed 3 times for 5 minutes each with 0.2% TBST washing buffer. Secondary antibody Anti-Rabbit IgG (1:5,000 in 5% Skim milk/0.2% TBST, CST), and IRDye® 680RD Goat anti-Rabbit IgG Secondary Antibody (1:10,000 in 5% BSA/0.2% TBST, LI-COR 926-68071) were incubated for 45 minutes on a rocker at room temperature. It was washed 5 times for 5 minutes each with 0.2% TBST washing buffer and detected with LI-COR's Odyssey. At this time, SHPTP2 was detected using SuperSignal West Pico PLUS Chemiluminescent Substrate, and house-keeping genes were also detected.
In the results of Table 4 below, Compounds 1-7, 13-19, and 21-26 are results in KYSE-520 cells, and the others are results in MV-4-11 cells.
In general terms: In western blotting, separated proteins are transferred to a membrane and probed.

The structures appear in SMILES notation.

Consider `Cc1ncsc1-c1ccc(CNC(=O)[C@@H]2C[C@@H](O)CN2C(=O)[C@@H](NC(=O)C2(F)CC2)C(C)(C)C)c(OCCN2CCC(CC(=O)Nc3cccc(Sc4cnc(N5CCC(C)(CN)CC5)cn4)c3Cl)CC2)c1` [Example 5, (2S,4R)—N-(2-(2-(4-(2-((3-((5-(4-(aminomethyl)-4-methylpiperidin-1-yl)pyrazin-2-yl)thio)-2-chlorophenyl)amino)-2-oxoethyl)piperidin-1-yl)ethoxy)-4-(4-methylthiazol-5-yl)benzyl)-1-((S)-2-(1-fluorocyclopropane-1-carboxamido)-3,3-dimethylbutanoyl)-4-hydroxypyrrolidine-2-carboxamide], for which the “SHP2 degradation (%) 10 nM” value turned out to be 3.4%, the “SHP2 degradation (%) 100 nM” value was found to be 56.7% and the “SHP2 degradation (%) 1000 nM” value was found to be 90.6%.
On to `Cc1ncsc1-c1ccc(CNC(=O)[C@@H]2C[C@@H](O)CN2C(=O)[C@@H](NC(=O)C2(F)CC2)C(C)(C)C)c(OCCCN2CCC(CC(=O)Nc3cccc(Sc4cnc(N5CCC(C)(CN)CC5)cn4)c3Cl)CC2)c1` [Example 6, (2S,4R)—N-(2-(3-(4-(2-((3-((5-(4-(aminomethyl)-4-methylpiperidin-1-yl)pyrazin-2-yl)thio)-2-chlorophenyl)amino)-2-oxoethyl)piperidin-1-yl)propoxy)-4-(4-methylthiazol-5-yl)benzyl)-1-((S)-2-(1-fluorocyclopropane-1-carboxamido)-3,3-dimethylbutanoyl)-4-hydroxypyrrolidine-2-carboxamide], for which the “SHP2 degradation (%) 10 nM” value came to 19.5%, the “SHP2 degradation (%) 100 nM” value was 82.4% and the “SHP2 degradation (%) 1000 nM” value amounted to 95.0%.
For the compound `Cc1ncsc1-c1ccc(CNC(=O)[C@@H]2C[C@@H](O)CN2C(=O)[C@@H](NC(=O)C2(F)CC2)C(C)(C)C)c(OCCCCN2CCC(CC(=O)Nc3cccc(Sc4cnc(N5CCC(C)(CN)CC5)cn4)c3Cl)CC2)c1` [Example 7, (2S,4R)—N-(2-(4-(4-(2-((3-((5-(4-(aminomethyl)-4-methylpiperidin-1-yl)pyrazin-2-yl)thio)-2-chlorophenyl)amino)-2-oxoethyl)piperidin-1-yl)butoxy)-4-(4-methylthiazol-5-yl)benzyl)-1-((S)-2-(1-fluorocyclopropane-1-carboxamido)-3,3-dimethylbutanoyl)-4-hydroxypyrrolidine-2-carboxamide], the “SHP2 degradation (%) 10 nM” value is reported as 25.4%, the “SHP2 degradation (%) 100 nM” value is 75.2% and the “SHP2 degradation (%) 1000 nM” value came out at 93.8%.
`Cc1ncsc1-c1ccc(CNC(=O)[C@@H]2C[C@@H](O)CN2C(=O)[C@@H](NC(=O)C2(F)CC2)C(C)(C)C)c(OCCN2CCC(CCC(=O)Nc3cccc(Sc4cnc(N5CCC(C)(CN)CC5)cn4)c3Cl)CC2)c1` [Example 13, (2S,4R)—N-(2-(2-(4-(3-((3-((5-(4-(aminomethyl)-4-methylpiperidin-1-yl)pyrazin-2-yl)thio)-2-chlorophenyl)amino)-3-oxopropyl)piperidin-1-yl)ethoxy)-4-(4-methylthiazol-5-yl)benzyl)-1-((S)-2-(1-fluorocyclopropane-1-carboxamido)-3,3-dimethylbutanoyl)-4-hydroxypyrrolidine-2-carboxamide]: the “SHP2 degradation (%) 10 nM” value is reported as −6.1%, the “SHP2 degradation (%) 100 nM” value is reported as 49.6% and the “SHP2 degradation (%) 1000 nM” value is reported as 69.2%.
Take `Cc1ncsc1-c1ccc(CNC(=O)[C@@H]2C[C@@H](O)CN2C(=O)[C@@H](NC(=O)C2(F)CC2)C(C)(C)C)c(OCCCN2CCC(CCC(=O)Nc3cccc(Sc4cnc(N5CCC(C)(CN)CC5)cn4)c3Cl)CC2)c1` [Example 14, (2S,4R)—N-(2-(3-(4-(3-((3-((5-(4-(aminomethyl)-4-methylpiperidin-1-yl)pyrazin-2-yl)thio)-2-chlorophenyl)amino)-3-oxopropyl)piperidin-1-yl)propoxy)-4-(4-methylthiazol-5-yl)benzyl)-1-((S)-2-(1-fluorocyclopropane-1-carboxamido)-3,3-dimethylbutanoyl)-4-hydroxypyrrolidine-2-carboxamide]: the “SHP2 degradation (%) 10 nM” value is 14.2%, the “SHP2 degradation (%) 100 nM” value came out at 60.1% and the “SHP2 degradation (%) 1000 nM” value is on record as 69.1%.
For `Cc1ncsc1-c1ccc(CNC(=O)[C@@H]2C[C@@H](O)CN2C(=O)[C@@H](NC(=O)C2(F)CC2)C(C)(C)C)c(OCCCCN2CCC(CCC(=O)Nc3cccc(Sc4cnc(N5CCC(C)(CN)CC5)cn4)c3Cl)CC2)c1` [Example 15, (2S,4R)—N-(2-(4-(4-(3-((3-((5-(4-(aminomethyl)-4-methylpiperidin-1-yl)pyrazin-2-yl)thio)-2-chlorophenyl)amino)-3-oxopropyl)piperidin-1-yl)butoxy)-4-(4-methylthiazol-5-yl)benzyl)-1-((S)-2-(1-fluorocyclopropane-1-carboxamido)-3,3-dimethylbutanoyl)-4-hydroxypyrrolidine-2-carboxamide], the “SHP2 degradation (%) 10 nM” value was determined as 21.7%, the “SHP2 degradation (%) 100 nM” value was found to be 58.3% and the “SHP2 degradation (%) 1000 nM” value came out at 74.6%.
For the compound `Cc1ncsc1-c1ccc(CNC(=O)[C@@H]2C[C@@H](O)CN2C(=O)[C@@H](NC(=O)C2(F)CC2)C(C)(C)C)c(OCCN2CCC(CCCC(=O)Nc3cccc(Sc4cnc(N5CCC(C)(CN)CC5)cn4)c3Cl)CC2)c1` [Example 16, (2S,4R)—N-(2-(2-(4-(4-((3-((5-(4-(aminomethyl)-4-methylpiperidin-1-yl)pyrazin-2-yl)thio)-2-chlorophenyl)amino)-4-oxobutyl)piperidin-1-yl)ethoxy)-4-(4-methylthiazol-5-yl)benzyl)-1-((S)-2-(1-fluorocyclopropane-1-carboxamido)-3,3-dimethylbutanoyl)-4-hydroxypyrrolidine-2-carboxamide], the “SHP2 degradation (%) 10 nM” value is −24.3%, the “SHP2 degradation (%) 100 nM” value is recorded as 45.1% and the “SHP2 degradation (%) 1000 nM” value is listed as 84.0%.
For the compound `Cc1ncsc1-c1ccc(CNC(=O)[C@@H]2C[C@@H](O)CN2C(=O)[C@@H](NC(=O)C2(F)CC2)C(C)(C)C)c(OCCCCN2CCC(CCCC(=O)Nc3cccc(Sc4cnc(N5CCC(C)(CN)CC5)cn4)c3Cl)CC2)c1` [Example 17, (2S,4R)—N-(2-(4-(4-(4-((3-((5-(4-(aminomethyl)-4-methylpiperidin-1-yl)pyrazin-2-yl)thio)-2-chlorophenyl)amino)-4-oxobutyl)piperidin-1-yl)butoxy)-4-(4-methylthiazol-5-yl)benzyl)-1-((S)-2-(1-fluorocyclopropane-1-carboxamido)-3,3-dimethylbutanoyl)-4-hydroxypyrrolidine-2-carboxamide], the “SHP2 degradation (%) 100 nM” value was 71.8% and the “SHP2 degradation (%) 1000 nM” value came out at 94.9%.

These data come from US20250230154A1, “COMPOUND HAVING SHP2 PROTEIN DEGRADING ACTIVITY, AND MEDICAL USES THEREOF” (UBIX THERAPEUTICS, INC., priority 2021, published 2025).
